Data published in patent publication US8624040B2, “Substituted hydroxamic acids and uses thereof” (Millennium Pharmaceuticals, Inc., priority 2009, dated 2014).

These compounds were tested against T1, purified human HDAC6 (Homo sapiens, UniProt Q9UBN7) (assay: HDAC6 Enzyme Assay). Conditions: enzyme inhibition, substrate Ac-Arg-Gly-Lys(Ac)-AMC, 1 hour at 30° C.
T1 construct: purchased BPS Bioscience 5006
T1 sequence (Q9UBN7 1-1215): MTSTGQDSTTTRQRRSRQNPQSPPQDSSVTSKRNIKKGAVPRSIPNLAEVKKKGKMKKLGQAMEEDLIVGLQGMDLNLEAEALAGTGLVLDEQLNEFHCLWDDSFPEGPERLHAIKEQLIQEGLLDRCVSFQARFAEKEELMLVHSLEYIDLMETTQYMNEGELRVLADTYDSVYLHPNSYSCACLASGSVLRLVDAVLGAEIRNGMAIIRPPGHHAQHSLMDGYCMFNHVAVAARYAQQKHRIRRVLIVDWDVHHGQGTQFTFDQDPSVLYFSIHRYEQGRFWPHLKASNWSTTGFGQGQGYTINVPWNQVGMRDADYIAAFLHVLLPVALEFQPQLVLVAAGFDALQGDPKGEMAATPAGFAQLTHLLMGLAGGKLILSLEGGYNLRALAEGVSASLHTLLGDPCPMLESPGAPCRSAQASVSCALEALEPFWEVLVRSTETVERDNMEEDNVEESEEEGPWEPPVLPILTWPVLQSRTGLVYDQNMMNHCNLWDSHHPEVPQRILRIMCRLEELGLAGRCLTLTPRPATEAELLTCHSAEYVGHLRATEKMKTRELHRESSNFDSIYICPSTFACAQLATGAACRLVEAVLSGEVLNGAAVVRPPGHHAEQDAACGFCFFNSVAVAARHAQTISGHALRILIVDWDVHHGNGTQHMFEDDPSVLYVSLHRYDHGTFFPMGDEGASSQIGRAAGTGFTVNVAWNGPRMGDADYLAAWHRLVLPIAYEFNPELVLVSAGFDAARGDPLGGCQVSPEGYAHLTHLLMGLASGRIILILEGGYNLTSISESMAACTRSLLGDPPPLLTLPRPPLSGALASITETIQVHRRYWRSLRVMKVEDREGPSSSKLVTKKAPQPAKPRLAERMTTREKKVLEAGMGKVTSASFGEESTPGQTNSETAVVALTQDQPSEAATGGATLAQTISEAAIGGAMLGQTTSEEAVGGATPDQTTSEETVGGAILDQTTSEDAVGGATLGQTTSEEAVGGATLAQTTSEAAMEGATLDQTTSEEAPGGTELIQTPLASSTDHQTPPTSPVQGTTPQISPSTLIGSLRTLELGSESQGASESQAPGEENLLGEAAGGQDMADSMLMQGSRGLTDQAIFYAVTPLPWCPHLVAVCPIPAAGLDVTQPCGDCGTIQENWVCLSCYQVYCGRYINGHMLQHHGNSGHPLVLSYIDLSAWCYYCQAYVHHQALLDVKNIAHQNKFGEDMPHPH
Format: biochemical
Protocol: To measure the inhibition of HDAC6 activity, purified human HDAC6 (BPS Bioscience; Cat. No. 5006) is incubated with substrate Ac-Arg-Gly-Lys(Ac)-AMC peptide (Bachem Biosciences; Cat. No. I-1925) for 1 hour at 30° C. in the presence of test compounds or vehicle DMSO control. The reaction is stopped with the HDAC inhibitor trichostatin A (Sigma; Cat. No. T8552) and the amount of Arg-Gly-Lys-AMC generated is quantitated by digestion with trypsin (Sigma; Cat. No. T1426) and subsequent measurement of the amount of AMC released using a fluorescent plate reader (Pherastar; BMG Technologies) set at Ex 340 nm and Em 460 nm. Concentration response curves are generated by calculating the fluorescence increase in test compound-treated samples relative to DMSO-treated controls, and enzyme inhibition (IC50) values are determined from those curves.
`CC1(C)CN(C(=O)c2cc3ccccc3s2)Cc2cc(C(=O)NO)sc21` [Compound 195, 5-(1-benzothien-2-ylcarbonyl)-N-hydroxy-7,7-dimethyl-4,5,6,7-tetrahydrothieno[3,2-c]pyridine-2-carboxamide] was tested, and the IC50 was > 1000 nM. `CC(C)(C)C(=O)N1CCc2sc(C(=O)NO)cc2C1` [Compound 26, 5-(2,2-dimethylpropanoyl)-N-hydroxy-4,5,6,7-tetrahydrothieno[3,2-c]pyridine-2-carboxamide] was tested, and the IC50 was < 50 nM. For `Cc1cc(C)n(CC(=O)N2CCc3cc(C(=O)NO)sc3C2)n1` [Compound 125, 6-(2-(3,5-dimethyl-1H-pyrazol-1-yl)acetyl)-N-hydroxy-4,5,6,7-tetrahydrothieno[2,3-c]pyridine-2-carboxamide], the IC50 was 50 to 100 nM. With `O=C(NO)c1cc2c(s1)CN(C(=O)c1cccc(O)n1)CC2` [Compound 81, N-hydroxy-6-[(6-hydroxypyridin-2-yl)carbonyl]-4,5,6,7-tetrahydrothieno[2,3-c]pyridine-2-carboxamide] the IC50 was 50 to 100 nM. `Cc1nc(C)c(CC(=O)N2CCc3cc(C(=O)NO)sc3C2)s1` [Compound 47, 6-[(2,4-dimethyl-1,3-thiazol-5-yl)acetyl]-N-hydroxy-4,5,6,7-tetrahydrothieno[2,3-c]pyridine-2-carboxamide] gave an IC50 of 50 to 100 nM. For `COc1ccc(C(=O)N2Cc3cc(C(=O)NO)sc3C(C)(C)C2)cc1` [Compound 214, N-hydroxy-5-(4-methoxybenzoyl)-7,7-dimethyl-4,5,6,7-tetrahydrothieno[3,2-c]pyridine-2-carboxamide], the IC50 was > 1000 nM. `Cc1c(C(=O)NO)sc2c1CN(C(=O)c1ccc(-c3ccccc3)cc1)CC2` [Compound 233, 5-(biphenyl-4-ylcarbonyl)-N-hydroxy-3-methyl-4,5,6,7-tetrahydrothieno[3,2-c]pyridine-2-carboxamide] was tested, and the IC50 was < 50 nM. Compound `COc1cc(OC)nc(C(=O)N2CCc3cc(C(=O)NO)sc3C2)n1` [Compound 100, 6-[(4,6-dimethoxypyrimidin-2-yl)carbonyl]-N-hydroxy-4,5,6,7-tetrahydrothieno[2,3-c]pyridine-2-carboxamide] has an IC50 of 50 to 100 nM. In the case of `Cc1c(C(=O)NO)sc2c1CN(C(=O)c1cc3ccccc3s1)CC2` [Compound 205, 5-(1-benzothien-2-ylcarbonyl)-N-hydroxy-3-methyl-4,5,6,7-tetrahydrothieno[3,2-c]pyridine-2-carboxamide], the IC50 is reported as < 50 nM. For `O=C(NO)c1cc2c(s1)CN(S(=O)(=O)c1ccc(C(F)(F)F)cc1)CC2` [Compound 21, N-hydroxy-6-{[4-(trifluoromethyl)phenyl]sulfonyl}-4,5,6,7-tetrahydrothieno[2,3-c]pyridine-2-carboxamide], the IC50 was < 50 nM. For `COc1cc(OC)nc(-c2ccc(C(=O)N3CCc4sc(C(=O)NO)cc4C3)cc2)n1` [Compound 32, 5-(4-(4,6-dimethoxypyrimidin-2-yl)benzoyl)-N-hydroxy-4,5,6,7-tetrahydrothieno[3,2-c]pyridine-2-carboxamide], the IC50 was < 50 nM. For `CC1(C)CN(C(=O)c2ccccn2)Cc2cc(C(=O)NO)sc21` [Compound 220, N-hydroxy-7,7-dimethyl-5-(pyridin-2-ylcarbonyl)-4,5,6,7-tetrahydrothieno[3,2-c]pyridine-2-carboxamide], the IC50 was > 1000 nM. For `O=C(NO)c1cc2c(s1)CN(Cc1ccc(-n3cccn3)cc1)CC2` [Compound 23, N-hydroxy-6-[4-(1H-pyrazol-1-yl)benzyl]-4,5,6,7-tetrahydrothieno[2,3-c]pyridine-2-carboxamide], the IC50 was < 50 nM. For `Cc1nn(-c2ccccc2)nc1CN1CCc2cc(C(=O)NO)sc2C1` [Compound 24, N-hydroxy-6-[(5-methyl-2-phenyl-2H-1,2,3-triazol-4-yl)methyl]-4,5,6,7-tetrahydrothieno[2,3-c]pyridine-2-carboxamide], the IC50 was < 50 nM. With `Cc1nc(CC(=O)N2CCc3cc(C(=O)NO)sc3C2)cs1` [Compound 75, N-hydroxy-6-(2-(2-methylthiazol-4-yl)acetyl)-4,5,6,7-tetrahydrothieno[2,3-c]pyridine-2-carboxamide] the IC50 was 50 to 100 nM. Work on `Cc1ncc(C(=O)N2CCc3cc(C(=O)NO)sc3C2)c(-c2ccccc2)n1` [Compound 48, N-hydroxy-6-(2-methyl-4-phenylpyrimidine-5-carbonyl)-4,5,6,7-tetrahydrothieno[2,3-c]pyridine-2-carboxamide] yielded an IC50 of 50 to 100 nM. With `Cc1ccoc1C(=O)N1CCc2cc(C(=O)NO)sc2C1` [Compound 94, N-hydroxy-6-(3-methyl-2-furoyl)-4,5,6,7-tetrahydrothieno[2,3-c]pyridine-2-carboxamide] the IC50 was < 50 nM. In the case of `O=C(NO)c1cc2c(s1)CN(C(=O)c1ccco1)CC2` [Compound 42, 6-(furan-2-carbonyl)-N-hydroxy-4,5,6,7-tetrahydrothieno[2,3-c]pyridine-2-carboxamide], the IC50 is reported as < 50 nM. For `COc1ccc(C(=O)N2CCc3sc(C(=O)NO)c(C)c3C2)cc1` [Compound 209, N-hydroxy-5-(4-methoxybenzoyl)-3-methyl-4,5,6,7-tetrahydrothieno[3,2-c]pyridine-2-carboxamide], the IC50 was < 50 nM. With `O=C(NO)c1cc2c(s1)CN(C(=O)c1cccc(-n3cccn3)c1)CC2` [Compound 133, 6-(3-(1H-pyrazol-1-yl)benzoyl)-N-hydroxy-4,5,6,7-tetrahydrothieno[2,3-c]pyridine-2-carboxamide] the IC50 was < 50 nM. In the case of `O=C(NO)c1cc2c(s1)CN(C(=O)c1cc3ccccc3s1)C2` [Compound 231, 5-(1-benzothien-2-ylcarbonyl)-N-hydroxy-5,6-dihydro-4H-thieno[2,3-c]pyrrole-2-carboxamide], the IC50 is reported as < 50 nM. For `O=C(NO)c1cc2c(s1)CN(C(=O)C1(c3ccc(F)cc3Cl)CCCC1)CC2` [Compound 13, 6-{[1-(2-chloro-4-fluorophenyl)cyclopentyl]carbonyl}-N-hydroxy-4,5,6,7-tetrahydrothieno[2,3-c]pyridine-2-carboxamide], the IC50 was < 50 nM. For `Cc1nc(-c2ccccc2)ncc1C(=O)N1CCc2cc(C(=O)NO)sc2C1` [Compound 152, N-hydroxy-6-[(4-methyl-2-phenylpyrimidin-5-yl)carbonyl]-4,5,6,7-tetrahydrothieno[2,3-c]pyridine-2-carboxamide], the IC50 was < 50 nM. `O=C(NO)c1cc2c(s1)CN(C(=O)C13CC4CC(CC(C4)C1)C3)C2` [Compound 230, 5-(1-adamantylcarbonyl)-N-hydroxy-5,6-dihydro-4H-thieno[2,3-c]pyrrole-2-carboxamide] showed an IC50 of 50 to 100 nM. In the case of `CC1(C(=O)N2CCc3sc(C(=O)NO)cc3C2)CCCCC1` [Compound 28, N-hydroxy-5-(1-methylcyclohexanecarbonyl)-4,5,6,7-tetrahydrothieno[3,2-c]pyridine-2-carboxamide], the IC50 is reported as < 50 nM. For `O=C(NO)c1cc2c(s1)CN(C(=O)c1c(F)c(F)cc(F)c1F)CC2` [Compound 156, N-hydroxy-6-(2,3,5,6-tetrafluorobenzoyl)-4,5,6,7-tetrahydrothieno[2,3-c]pyridine-2-carboxamide], the IC50 was < 50 nM. In the case of `CC(C)(C)c1ccc(C(=O)N2Cc3cc(C(=O)NO)sc3C(C)(C)C2)cc1` [Compound 190, 5-(4-tert-butylbenzoyl)-N-hydroxy-7,7-dimethyl-4,5,6,7-tetrahydrothieno[3,2-c]pyridine-2-carboxamide], the IC50 is reported as > 1000 nM. `Cn1cccc1C(=O)N1CCc2sc(C(=O)NO)cc2C1` [Compound 27, N-hydroxy-5-[(1-methyl-1H-pyrrol-2-yl)carbonyl]-4,5,6,7-tetrahydrothieno[3,2-c]pyridine-2-carboxamide] was tested, and the IC50 was < 50 nM. With `Cc1noc(C)c1C(=O)N1CCc2cc(C(=O)NO)sc2C1` [Compound 177, 6-[(3,5-dimethylisoxazol-4-yl)carbonyl]-N-hydroxy-4,5,6,7-tetrahydrothieno[2,3-c]pyridine-2-carboxamide] the IC50 was < 50 nM.
